Measurements taken from patent EP4653006A1, “NOVEL MIXTURE OF ACTIVE INGREDIENTS, COMPOSITIONS CONTAINING THEM, AND THEIR USE AGAINST ALLERGY AND/OR INFLAMMATION” (Global Pharmacies Partner S.R.L. in Forma Abbreviata G.P.P. …, priority 2024, dated 2025).

Columns and labels:
RBL-2H3 cells = experiment: degranulation (β-hexosaminidase release) in sensitized/stimulated RBL-2H3 cells; assay type: cell-based, rat; details: positive control 20 µM
Method: The antiallergic activity of the tested sample of mixture M was evaluated by measuring its ability to prevent degranulation processes in a rat leukemia cell line (RBL-2H3), widely used as a model simulating mast cells in immunological and allergological studies.
(§1) The RBL-2H3 cells were first sensitized and then stimulated to induce degranulation.
The test was conducted on RBL-2H3 cells grown in DMEM (Dulbecco's modified Eagle medium) containing 10% fetal bovine serum (FBS) and 1% antibiotics (penicillin and streptomycin) and incubated in standard culture conditions (37°C, 5% CO2). […]
The medium was then recovered and separated from the cells and incubated with 4-nitrophenyl-N-acetyl-β-D-glucosamide. The reaction was stopped with carbonate buffer and the absorbance was measured by spectrophotometric reading at 405 nm. Degranulation was calculated as the percentage of β-hexosaminidase relative to non-sensitized (NS) cells as follows: Degranulation (%) = (ODX)/(ODNS)⋅100 [formula]
The measured absorbance (optical density, OD) is directly proportional to the amount of β-hexosaminidase present in the analyzed fluids, which in turn correlates positively with the levels of histamine released during the degranulation phase and is therefore an indicative marker of the degranulation process. […] The values are expressed as means ± standard deviation. […]

TNFα = TNFα release by ELISA in sensitized/stimulated RBL-2H3 cells; assay type: cell-based, rat; details: positive control 20 µM
Method: The anti-inflammatory action was instead evaluated, always in the same cell line, by measuring the ability of the sample to inhibit the release of tumor necrosis factor alpha (TNFα).
as §1
The test was conducted on RBL-2H3 cells grown in DMEM (Dulbecco's modified Eagle medium) containing 10% fetal bovine serum (FBS) and 1% antibiotics (penicillin and streptomycin) and incubated in standard culture conditions (37°C, 5% CO2). RBL-2H3 cells are widely used in allergy and immunology research, as, like mast cells, they express FCεRI and, following cross-linking between IgE bound to FCεRI and allergens, they undergo degranulation. In this way, therefore, they simulate the behavior of mast cells and basophils in their response to an immunological stimulus.
The supernatant recovered from the cells was also used for the dosage of TNFα performed by ELISA (Enzyme-Linked Immunosorbent Assay), a very widespread biochemical technique used for the quantification of proteins and peptides. In an ELISA assay, a specific […] for TNFα is immobilized on a solid surface (the bottom of a well) to which the assay medium is added. Detection is done by means of a biotinylated secondary antibody and then reacted with streptavidin-HRP. The colorimetric reaction is proportional to the amount of TNFα present. The results are read by spectrophotometer at 450 nm. The values obtained were then interpolated into a standard curve of TNFα.
The absorbance (optical density, OD) measured at 450 nm is directly proportional to the amount of TNFα produced by the tissues. To calculate the concentrations of TNFα, the OD values obtained were interpolated into a standard curve of TNFα. The percentages were calculated with respect to the non-sensitized and non-stimulated cells (NS). The values are expressed as means ± standard deviation. Statistical processing of the data was performed by Student's t-test. Values of p<0.05 are considered significant. […]

## C=C1CC[C@H]2C(=C)CC[C@H]3C(=C)C(=O)O[C@@H]3[C@@H]12 [PC, Dehydrocostolactone]
RBL-2H3 cells
  protection (% vs NC), reduction in degranulation: 80.8%
RBL-2H3 cells; anti-DNP IgE / DNP-HSA, NC = 1,274.6
  β-hexosaminidase (% vs NS): 244.8%
TNFα
  protection (% vs NC), reduction in TNFα release: 19.5%
TNFα; NC = 227.8
  TNFα (% vs NS): 183.4%
TNFα; NC = 248.8
  TNFα: 200.3 pg/mL
